Assay results from patent US11596692B1 (Incyte Corporation, priority 2018, dated 2023).
Read-outs that look alike come from different tables or passages of the source.

Tested on: IRF3
Assay: IRF3 activation assay in THP-1 Dual cells
Assay type: cell-based
Conditions: Homo sapiens, read-out: THP1 IRF3 EC50
Protocol: THP-1 Dual Cells (Invivogen) were maintained in RPMI1640 medium with addition of 10% FBS, 100 μg/ml zeocin, 10 μg/ml blasticidin. Cells were added in a 96-well flat bottom assay plate at 100,000 per well in 100 μL complete RPMI medium. Test compounds were prepared by serial dilution in complete RPMI medium and 100 μL test compounds were transferred to each corresponding well. The assay plate was incubated at 37° C., 5% CO2 for 24 hours. After the overnight incubation, 20 μL of the culture supernatants were collected, followed by addition of 180 μL of QUANTI-Blue (Invivogen) to assess IRF3 activity. The amount of IRF3 activation was assessed by reading the absorbance at 620-655 nm with a microplate reader 2 hours later. The culture supernatant from the untreated THP-1 cells was used as the negative control. EC50 determination was performed by fitting the curve of percent control activity versus the log of the compound concentration using the GraphPad Prism 6.0 software.

EC50 (THP-1, Table 4C) [nM]	EC50 (THP-1, Table 4A) [nM]	EC50 (THP-1, Table 4B) [nM]	SMILES
≤ 50			CCn1nc(C)cc1C(=O)Nc1nc2cc(C(N)=O)cc(OC)c2n1C/C=C/Cn1c2nc(-c3cc(C)nn3CC)ncc2c2cc(C(N)=O)cc(OCCCNC(=O)CCCC(=O)O)c21 [Example S51, (E)-5-(3-(6-carbamoyl-9-(4-(5-carbamoyl-2-(1-ethyl-3-methyl-1H-pyrazole-5-carboxamido)-7-methoxy-1H-benzo[d]imidazol-1-yl)but-2-enyl)-2-(1-ethyl-3-methyl-1H-pyrazol-5-yl)-9H-pyrimido[4,5-b]indol-8-yloxy)propylamino)-5-oxopentanoic acid]
200 to 500			CCn1nc(C)cc1C(=O)Nc1nc2cc(C(N)=O)cc(OCCCOC(=O)NCCC(=O)O)c2n1C/C=C/Cn1c2nc(-c3cc(C)nn3CC)ncc2c2cc(C(N)=O)cc(OCCOCCOCCC(=O)O)c21 [Example S63, (E)-3-(((3-((5-carbamoyl-1-(4-(6-carbamoyl-8-(2-(2-(2-carboxyethoxy)ethoxy)ethoxy)-2-(1-ethyl-3-methyl-1H-pyrazol-5-yl)-9H-pyrimido[4,5-b]indol-9-yl)but-2-en-1-yl)-2-(1-ethyl-3-methyl-1H-pyrazole-5-carboxamido)-1H-benzo[d]imidazol-7-yl)oxy)propoxy)carbonyl)amino)propanoic acid]
≤ 50	≤ 100	< 200	CCn1nc(C)cc1C(=O)Nc1nc2cc(C(N)=O)cc(OCCCOC(=O)c3cc(C)nn3CC)c2n1C/C=C/Cn1c2nc(-c3cc(C)nn3CC)ncc2c2cc(C(N)=O)cc(OCCCN3CCOCC3)c21 [Example S19, (E)-3-((5-carbamoyl-1-(4-(6-carbamoyl-2-(1-ethyl-3-methyl-1H-pyrazol-5-yl)-8-(3-morpholinopropoxy)-9H-pyrimido[4,5-b]indol-9-yl)but-2-en-1-yl)-2-(1-ethyl-3-methyl-1H-pyrazole-5-carboxamido)-1H-benzo[d]imidazol-7-yl)oxy)propyl 1-ethyl-3-methyl-1H-pyrazole-5-carboxylate]
≤ 50	≤ 100	< 200	CCn1nc(C)cc1C(=O)Nc1nc2cc(C(N)=O)cc(OCCCOC(=O)c3cc(C)nn3CC)c2n1C/C=C/Cn1c2nc(-c3cc(C)nn3CC)ncc2c2cc(C(N)=O)cc(OC)c21 [Example S15, (E)-3-((5-carbamoyl-1-(4-(6-carbamoyl-2-(1-ethyl-3-methyl-1H-pyrazol-5-yl)-8-methoxy-9H-pyrimido[4,5-b]indol-9-yl)but-2-en-1-yl)-2-(1-ethyl-3-methyl-1H-pyrazole-5-carboxamido)-1H-benzo[d]imidazol-7-yl)oxy)propyl 1-ethyl-3-methyl-1H-pyrazole-5-carboxylate]
≤ 50	≤ 100	< 200	CCn1nc(C)cc1C(=O)Nc1nc2cc(C(N)=O)cc(OCCCO)c2n1C/C=C/Cn1c2ccc(C(N)=O)cc2c2cnc(-c3cc(C)nn3CC)nc21 [Example S18, (E)-9-(4-(5-carbamoyl-2-(1-ethyl-3-methyl-1H-pyrazole-5-carboxamido)-7-(3-hydroxypropoxy)-1H-benzo[d]imidazol-1-yl)but-2-en-1-yl)-2-(1-ethyl-3-methyl-1H-pyrazol-5-yl)-9H-pyrimido[4,5-b]indole-6-carboxamide]
≤ 50			CCn1nc(C)cc1C(=O)Nc1nc2cc(C(N)=O)cc(OCCCO)c2n1C/C=C/Cn1c2nc(-c3cc(C)nn3CC)ncc2c2cc(C(N)=O)cc(OCCCNC(=O)OCCC(=O)O)c21 [Example S54, (E)-3-(3-(6-carbamoyl-9-(4-(5-carbamoyl-2-(1-ethyl-3-methyl-1H-pyrazole-5-carboxamido)-7-(3-hydroxypropoxy)-1H-benzo[d]imidazol-1-yl)but-2-enyl)-2-(1-ethyl-3-methyl-1H-pyrazol-5-yl)-9H-pyrimido[4,5-b]indol-8-yloxy)propylcarbamoyloxy)propanoic acid]
≤ 50			CCn1nc(C)cc1C(=O)Nc1nc2cc(C(N)=O)cc(OCCO)c2n1C/C=C/Cn1c2nc(-c3cc(C)nn3CC)ncc2c2cc(C(N)=O)cc(OCCCOC)c21 [Example S41, (E)-9-(4-(5-carbamoyl-2-(1-ethyl-3-methyl-1H-pyrazole-5-carboxamido)-7-(2-hydroxyethoxy)-1H-benzo[d]imidazol-1-yl)but-2-en-1-yl)-2-(1-ethyl-3-methyl-1H-pyrazol-5-yl)-8-(3-methoxypropoxy)-9H-pyrimido[4,5-b]indole-6-carboxamide]
	≤ 100		CCn1nc(C)cc1C(=O)Nc1nc2cc(C(N)=O)cc(C)c2n1C/C=C/Cn1c(NC(=O)c2cc(C)nn2CC)nc2cc(C(N)=O)c3ccoc3c21 [Example S31, (E)-1-(4-(5-carbamoyl-2-(1-ethyl-3-methyl-1H-pyrazole-5-carboxamido)-7-methyl-1H-benzo[d]imidazol-1-yl)but-2-en-1-yl)-2-(1-ethyl-3-methyl-1H-pyrazole-5-carboxamido)-1H-benzofuro[6,7-d]imidazole-5-carboxamide]
500 to 1000	500 to 1000	< 1000	CCc1nn(C)cc1-c1ncc2c3cc(C(N)=O)ccc3n(C/C=C/Cn3c(NC(=O)c4cc(C)nn4CC)nc4cc(C(N)=O)cc(C)c43)c2n1 [Example S8, (E)-9-(4-(5-carbamoyl-2-(1-ethyl-3-methyl-1H-pyrazole-5-carboxamido)-7-methyl-1H-benzo[d]imidazol-1-yl)but-2-enyl)-2-(3-ethyl-1-methyl-1H-pyrazol-4-yl)-9H-pyrimido[4,5-b]indole-6-carboxamide]
50 to 200	≤ 100	< 1000	CCn1nc(C)cc1C(=O)Nc1nc2cc(C(N)=O)cc(C)c2n1C/C=C/Cn1c2ccc(C(N)=O)cc2c2ccc(-c3cc(C)nn3CC)nc21 [Example S5, (E)-9-(4-(5-carbamoyl-2-(1-ethyl-3-methyl-1H-pyrazole-5-carboxamido)-7-methyl-1H-benzo[d]imidazol-1-yl)but-2-en-1-yl)-2-(1-ethyl-3-methyl-1H-pyrazol-5-yl)-9H-pyrido[2,3-b]indole-6-carboxamide]
≤ 50	≤ 100	< 200	CCn1nc(C)cc1C(=O)Nc1nc2cc(C(N)=O)cc(C)c2n1C/C=C/Cn1c2nc(-c3cc(C)nn3CC)ncc2c2cc(C(N)=O)cc(OCCCN3CCOCC3)c21 [Example S11, (E)-9-(4-(5-carbamoyl-2-(1-ethyl-3-methyl-1H-pyrazole-5-carboxamido)-7-methyl-1H-benzo[d]imidazol-1-yl)but-2-enyl)-2-(1-ethyl-3-methyl-1H-pyrazol-5-yl)-8-(3-morpholinopropoxy)-9H-pyrimido[4,5-b]indole-6-carboxamide]
50 to 200			CCn1nc(C)cc1C(=O)Nc1nc2cc(C(N)=O)cc(OCCCO)c2n1C/C=C/Cn1c2nc(-c3cc(C)nn3CC)ncc2c2cc(C(N)=O)cc(OCCCOC(=O)NCCC(=O)O)c21 [Example S62, (E)-3-((3-(6-carbamoyl-9-(4-(5-carbamoyl-2-(1-ethyl-3-methyl-1H-pyrazole-5-carboxamido)-7-(3-hydroxypropoxy)-1H-benzo[d]imidazol-1-yl)but-2-enyl)-2-(1-ethyl-3-methyl-1H-pyrazol-5-yl)-9H-pyrimido[4,5-b]indol-8-yloxy)propoxy)carbonylamino)propanoic acid]
